# Data from US20110288086A1, “POLYCYCLIC QUINAZOLINES, PREPARATION THEREOF, AND USE THEREOF” (priority 2010, published 2011).
# Columns and labels:
# aurora kinase B = target: T1, aurora kinase B (Homo sapiens, UniProt Q96GD4); assay: Aurora kinase B inhibition in vitro (Invitrogen aurora kinase screening kit PV3174); type: biochemical
# T1 construct: purchased Invitrogen PV3174
# [1] = tested on: K562 human chronicity marrow leukemic cells; assay: Tumor cell inhibition ratio, CCK-8 kit, K562; settings: K562, read-out: Antiproliferative effect (inhibition ratio) K562
# Source text: (§1) The inhibitory activities of the compounds on tumor cells in vitro
# [2] = tested on: A549 human lung cancer cells; assay: Tumor cell inhibition ratio, CCK-8 kit, A549; settings: A549, read-out: Antiproliferative effect (inhibition ratio) A549
# Source text: as §1
# [3] = tested on: PC-3 human carcinoma of prostate; assay: Tumor cell inhibition ratio, CCK-8 kit, PC-3; settings: read-out: Antiproliferative effect (inhibition ratio) PC-3
# Source text: as §1
# [4] = tested on: Hut78 T-Lymphocytic Leukemia cells; assay: Tumor cell inhibition ratio, CCK-8 kit, Hut78; settings: Homo sapiens, HuT78, read-out: Antiproliferative effect (inhibition ratio) Hut-78
# Source text: as §1
# [5] = tested on: Hep3B2.1-7 human hepatoma carcinoma cells; assay: Tumor cell inhibition ratio, CCK-8 kit, Hep3B; settings: read-out: Antiproliferative effect (inhibition ratio) Hep3B
# Source text: as §1
# [6] = tested on: PANC-1 human pancreatic cancer cells; assay: Tumor cell inhibition ratio, CCK-8 kit, PANC-1; settings: PANC-1, read-out: Antiproliferative effect (inhibition ratio) PANC-1
# Source text: as §1
# [7] = tested on: Colo320 human rectal cancer cells; assay: Tumor cell inhibition ratio, CCK-8 kit, Colo320; settings: COLO 320, read-out: Antiproliferative effect (inhibition ratio) Colo320
# Source text: as §1
# [8] = tested on: Jurkat E6-1 human T-cell lymphoma; assay: Tumor cell inhibition ratio, CCK-8 kit, Jurkat E6-1; settings: Jurkat E6.1, read-out: Antiproliferative effect (inhibition ratio) E6-1
# Source text: as §1
# [9] = tested on: MDA-MB-435s human breast carcinoma cells; assay: Tumor cell inhibition ratio, CCK-8 kit, MDA-MB-435s; settings: read-out: Antiproliferative effect (inhibition ratio) 435s
# Source text: as §1
# EGFR tyrosine kinase = EGFR tyrosine kinase (Homo sapiens, UniProt P00533); assay: EGFR tyrosine kinase inhibition in vitro (Invitrogen EGFR inhibitor screening kit PV3193)
# Chain of EGFR tyrosine kinase (P00533 25-1210): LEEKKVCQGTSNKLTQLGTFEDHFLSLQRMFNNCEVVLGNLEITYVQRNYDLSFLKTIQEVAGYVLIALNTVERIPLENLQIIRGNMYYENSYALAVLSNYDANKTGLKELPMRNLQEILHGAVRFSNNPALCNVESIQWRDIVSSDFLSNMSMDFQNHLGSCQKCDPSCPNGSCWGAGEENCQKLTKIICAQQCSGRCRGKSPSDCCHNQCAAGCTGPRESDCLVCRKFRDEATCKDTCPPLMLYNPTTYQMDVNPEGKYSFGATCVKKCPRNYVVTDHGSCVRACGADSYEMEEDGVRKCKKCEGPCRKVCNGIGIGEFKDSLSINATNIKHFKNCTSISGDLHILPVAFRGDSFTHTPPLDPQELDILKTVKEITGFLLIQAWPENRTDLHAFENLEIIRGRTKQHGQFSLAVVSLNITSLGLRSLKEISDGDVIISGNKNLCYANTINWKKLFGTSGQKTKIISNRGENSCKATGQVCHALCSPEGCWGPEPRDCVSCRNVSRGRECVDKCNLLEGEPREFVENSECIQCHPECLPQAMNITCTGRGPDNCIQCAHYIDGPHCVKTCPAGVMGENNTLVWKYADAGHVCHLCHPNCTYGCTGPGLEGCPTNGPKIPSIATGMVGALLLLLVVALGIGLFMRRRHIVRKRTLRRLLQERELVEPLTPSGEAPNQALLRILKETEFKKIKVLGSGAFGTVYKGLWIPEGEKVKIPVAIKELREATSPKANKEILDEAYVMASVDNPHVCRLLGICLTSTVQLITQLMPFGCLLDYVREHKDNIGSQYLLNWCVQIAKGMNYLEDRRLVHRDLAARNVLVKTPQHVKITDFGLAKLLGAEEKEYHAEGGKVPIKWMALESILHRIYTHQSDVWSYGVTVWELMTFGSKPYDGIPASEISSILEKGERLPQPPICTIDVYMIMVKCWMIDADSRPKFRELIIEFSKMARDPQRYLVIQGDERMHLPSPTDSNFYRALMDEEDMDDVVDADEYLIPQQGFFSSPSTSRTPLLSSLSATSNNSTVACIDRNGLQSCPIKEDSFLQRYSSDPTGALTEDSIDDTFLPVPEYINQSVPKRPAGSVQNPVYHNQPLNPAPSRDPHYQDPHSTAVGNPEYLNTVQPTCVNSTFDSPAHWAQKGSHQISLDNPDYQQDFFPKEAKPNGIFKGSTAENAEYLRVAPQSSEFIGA
# Source text: The inhibitory activities of EGFR tyrosine kinase in vitro
# Erlotinib hydrochloride was used as a positive control drug.
# T1 sequence (Q96GD4 whole entry): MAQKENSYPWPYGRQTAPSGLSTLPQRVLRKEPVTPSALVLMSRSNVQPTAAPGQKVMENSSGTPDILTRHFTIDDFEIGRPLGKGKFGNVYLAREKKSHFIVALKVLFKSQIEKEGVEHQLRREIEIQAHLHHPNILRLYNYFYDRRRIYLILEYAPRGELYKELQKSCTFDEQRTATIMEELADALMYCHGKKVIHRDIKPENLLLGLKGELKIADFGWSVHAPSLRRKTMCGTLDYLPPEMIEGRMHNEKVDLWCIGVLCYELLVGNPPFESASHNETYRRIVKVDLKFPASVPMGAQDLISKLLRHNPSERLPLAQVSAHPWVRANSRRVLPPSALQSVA
Compound,The inhibition ratio of the compound on Aurora B(%) (aurora kinase B; 40 μM),The inhibition ratio of the compound on Aurora B(%) (aurora kinase B; 200 μM),inhibition at 10 µM [1],inhibition at 100 µM [1],inhibition at 10 µM [2],inhibition at 100 µM [2],inhibition at 10 µM [3],inhibition at 100 µM [3],inhibition at 10 µM [4],inhibition at 100 µM [4],inhibition at 10 µM [5],inhibition at 100 µM [5],inhibition at 10 µM [6],inhibition at 100 µM [6],inhibition at 10 µM [7],inhibition at 100 µM [7],inhibition at 10 µM [8],inhibition at 100 µM [8],inhibition at 10 µM [9],inhibition at 100 µM [9],also measured
"COCCOc1cc2c(cc1OCCOC)C1=Nc3cccc(OC)c3CN1C=N2 [Compound V-10, 9-methoxy-2,3-bis(2-methoxyethoxy)-8H-quinazolino[4,3-b]quinazoline]",20.8%,73.6%,47.5%,85%,28.8%,82.8%,9.39%,91.7%,41.1%,72.2%,31.9%,72.2%,36.5%,96.9%,10.8%,72.8%,51.8%,84.2%,29.6%,65.1%,The inhibition ratio of the compound on EGFR(%) (EGFR tyrosine kinase; 40 μM): 30.8%; The inhibition ratio of the compound on EGFR(%) (EGFR tyrosine kinase; 200 μM): 78.5%
"COCCOc1cc2c(cc1OCCOC)C1=Nc3ccc(OCc4cccc(F)c4)c(Cl)c3CN1C=N2 [Compound V-14, 9-chloro-10-(3-fluoro-benzyloxy)-2,3-bis(2-methoxyethoxy)-8H-quinazolino[4,3-b]quinazoline]",23.2%,76.9%,36.6%,100%,31.1%,97.8%,38.5%,97.1%,21.3%,98.7%,45.1%,100%,38.3%,99.9%,17.6%,88%,26.9%,97.7%,46.6%,94.8%,The inhibition ratio of the compound on EGFR(%) (EGFR tyrosine kinase; 40 μM): 45.2%; The inhibition ratio of the compound on EGFR(%) (EGFR tyrosine kinase; 200 μM): 87.9%
"COCCOc1cc2c(cc1OCCOC)C1=Nc3cc(F)ccc3CN1C=N2 [Compound V-16, 11-fluoro-2,3-bis(2-methoxyethoxy)-8H-quinazolino[4,3-b]quinazoline]",21.5%,78.1%,53.6%,93.8%,50.7%,70.2%,53.5%,98.9%,44.3%,99.6%,30.3%,74.6%,22.4%,99.9%,52.7%,99.4%,56.6%,97.3%,48.9%,66.2%,The inhibition ratio of the compound on EGFR(%) (EGFR tyrosine kinase; 40 μM): 21.7%; The inhibition ratio of the compound on EGFR(%) (EGFR tyrosine kinase; 200 μM): 80.1%
"COCCOc1cc2c(cc1OCCOC)C1=Nc3cc(C#N)ccc3CN1C=N2 [Compound V-17, 11-cyano-2,3-bis(2-methoxyethoxy)-8H-quinazolino[4,3-b]quinazoline]",26.4%,84.3%,19.1%,25.2%,49.9%,87.1%,28.1%,91.7%,35.9%,45.3%,58.4%,85.2%,19.6%,56.8%,9.66%,26.1%,33.7%,79.6%,37.5%,95.5%,The inhibition ratio of the compound on EGFR(%) (EGFR tyrosine kinase; 40 μM): 25.4%; The inhibition ratio of the compound on EGFR(%) (EGFR tyrosine kinase; 200 μM): 70.6%
"COCCOc1cc2c(cc1OCCOC)C1=Nc3cc(O)ccc3CN1C=N2 [Compound V-18, 11-hydroxy-2,3-bis(2-methoxyethoxy)-8H-quinazolino[4,3-b]quinazoline]",23.2%,76.9%,10.4%,59%,37.8%,78.6%,37%,76.2%,19.7%,65.2%,40.1%,77.5%,30%,84.4%,38.1%,75.1%,44.1%,84%,36.6%,72.3%,The inhibition ratio of the compound on EGFR(%) (EGFR tyrosine kinase; 40 μM): 33.2%; The inhibition ratio of the compound on EGFR(%) (EGFR tyrosine kinase; 200 μM): 78.8%
